Test results taken from patent publication US8980335B2, “Use of organic acids and essential oils in animal feeding” (DSM IP Assets B.V., priority 2007, dated 2015).

Legend:
[1] = test system: poultry; details: cited from earlier work
[2] = test system: pig; details: cited from earlier work
[3] = test system: broiler chickens; test: Growth performance trial with broiler chickens (day 8 to day 29); assay type: in vivo, chickens (ROSS PM3); details: for Feed conversion (g feed/g gain) / Feed conversion relative to control (control 100.0) / Feed intake (g/bird) / Feed intake relative to control (control 100.0) / Weight gain (g/bird) / Weight gain relative to control (control 100.0): Day 8-29
Procedure: A growth performance trial with broiler chickens was performed from day 8 to day 29. The chickens were housed in wire-floored battery cages. From day-old until day 8, the chickens were fed a pre-experimental diet based on wheat, maize and soybean meal. In the experimental period (day 8 to 29) the chickens received diets based on wheat, rye and soybean meal (composition see Table 1). Groups of birds were weighed on days 8, 15, 22 and 29. The feed consumption for the intermediate periods was determined and body weight gain and feed conversion ratio were calculated.
Beside an un-supplemented control treatment and a positive control containing 10 mg of the antibiotic Avilamycin per kg feed, benzoic acid (VevoVitall) was included at 500 mg per kg feed. In addition, per kg feed, combinations of 250 mg benzoic acid and 50 mg of the composition comprising thymol, eugenol and piperine (herein abbreviated by TEP) as well as either 500 mg benzoic acid and 25 mg TEP or 500 mg benzoic acid and 50 mg TEP were tested, respectively.

## O=C(O)c1ccccc1 [VevoVitall, benzoic acid]
[1]
  Dosage in feed at which undesired adverse effects occur: > 5000 mg/kg poultry feed
[2]
  Dosage in feed at which undesired adverse effects occur: > 10000 mg/kg pig feed
[3]; dose 500 mg/kg feed
  Feed conversion (g feed/g gain): 2.117 ± 0.093 g feed/g gain
  Feed conversion relative to control (control 100.0): 100.8
  Feed intake (g/bird): 2538 ± 309.6 g/bird
  Feed intake relative to control (control 100.0): 104.3
  Weight gain (g/bird): 1196 ± 103.0 g/bird
  Weight gain relative to control (control 100.0): 103.1
[3]; VevoVitall alone at 500 mg/kg
  Improvement in weight gain compared to the control: 3%

## COC[C@H]1O[C@@H](OC2OC[C@@H]3O[C@]4(O[C@H]3[C@H]2OC(=O)C(C)C)O[C@H](C)[C@@](O)(C(C)=O)[C@@H]2OCO[C@H]24)[C@@H](OC)[C@@H](O)[C@@H]1O[C@@H]1O[C@H](C)[C@H](OC)[C@H](O[C@H]2C[C@@]3(C)OC4(C[C@@H](O)[C@H](O[C@H]5C[C@@H](O)[C@H](OC(=O)c6c(C)c(Cl)c(O)c(Cl)c6OC)[C@@H](C)O5)[C@@H](C)O4)O[C@@H]3[C@@H](C)O2)[C@H]1O (some centres unmarked) [Avilamycin]
[3]; Avilamycin 10 mg per kg feed
  Improvement in weight gain compared to the control: 8.7%
  Improvement of feed conversion (FCR) compared to the negative control: 4.3%
[3]; dose 10 mg/kg feed
  Feed conversion (g feed/g gain): 2.008 ± 0.052 g feed/g gain
  Feed conversion relative to control (control 100.0): 95.7
  Feed intake (g/bird): 2533 ± 199.6 g/bird
  Feed intake relative to control (control 100.0): 104.1
  Weight gain (g/bird): 1261 ± 76.8 g/bird
  Weight gain relative to control (control 100.0): 108.7
